According to PubChem BioAssay (NCI):
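How tested: cells in 96-well plates exposed to compound for 48 hours at five concentrations. Here, GI50 denotes the concentration required for 50% inhibition of growth. TGI denotes the concentration required for complete inhibition of growth.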

Columns and labels:
Experiment in all cases: DTP human tumour cell line panel, 48 h
ACHN renal = test system: ACHN renal
MDA-MB-231 breast = test system: MDA-MB-231 breast
786-0 renal = test system: 786-0 renal
HOP-62 NSCLC = test system: HOP-62 NSCLC
DU-145 prostate = test system: DU-145 prostate
NCI-H23 lung = test system: NCI-H23 lung
HOP-92 NSCLC = test system: HOP-92 NSCLC
HCC-2998 colon = test system: HCC-2998 colon
PC-3 prostate = test system: PC-3 prostate
SK-MEL-5 melanoma = test system: SK-MEL-5 melanoma
U251 CNS = test system: U251 CNS
UO-31 renal = test system: UO-31 renal
A549 NSCLC = test system: A549 NSCLC
RPMI-8226 leukemia = test system: RPMI-8226 leukemia
M14 melanoma = test system: M14 melanoma
UACC-62 melanoma = test system: UACC-62 melanoma
SR leukemia = test system: SR leukemia
NCI-H460 lung = test system: NCI-H460 lung
KM12 colon = test system: KM12 colon
NCI/ADR-RES ovarian = test system: NCI/ADR-RES ovarian
A498 renal = test system: A498 renal
OVCAR-8 ovarian = test system: OVCAR-8 ovarian
K-562 leukemia = test system: K-562 leukemia
SF-268 CNS = test system: SF-268 CNS
OVCAR-5 ovarian = test system: OVCAR-5 ovarian
NCI-H226 lung = test system: NCI-H226 lung
SK-MEL-28 melanoma = test system: SK-MEL-28 melanoma

In the case of `CCN(CC)c1ccc2c(c1)Oc1nc(N)c(C#N)c(N)c1C2Sc1ccc(C)cc1` (stereo not drawn), the TGI (ACHN renal) is reported as 2930 nM, the GI50 (MDA-MB-231 breast) is reported as 1450 nM and the TGI (MDA-MB-231 breast) is reported as 2810 nM. For the same compound, the GI50 (786-0 renal) was 1880 nM, the TGI (786-0 renal) was 3450 nM and the GI50 (HOP-62 NSCLC) was 1760 nM. For the same compound, the TGI (HOP-62 NSCLC) was 3290 nM, the GI50 (DU-145 prostate) was 1800 nM and the TGI (DU-145 prostate) was 3210 nM. For the same compound, the GI50 (NCI-H23 lung) was 1260 nM, the TGI (NCI-H23 lung) was 2640 nM and the GI50 (HOP-92 NSCLC) was 1310 nM. The TGI (HOP-92 NSCLC) was 2600 nM, the GI50 (HCC-2998 colon) was 1780 nM and the TGI (HCC-2998 colon) was 3320 nM. The GI50 (PC-3 prostate) was 1260 nM, the TGI (PC-3 prostate) was 2600 nM and the GI50 (SK-MEL-5 melanoma) was 1760 nM. The TGI (SK-MEL-5 melanoma) was 3150 nM, the GI50 (U251 CNS) was 1200 nM and the TGI (U251 CNS) was 2740 nM. The GI50 (UO-31 renal) was 1350 nM, the TGI (UO-31 renal) was 2630 nM and the GI50 (A549 NSCLC) was 1930 nM. For the same compound, the TGI (A549 NSCLC) was 3840 nM, the GI50 (RPMI-8226 leukemia) was 1900 nM and the TGI (RPMI-8226 leukemia) was 5610 nM. The GI50 (M14 melanoma) was 1570 nM, the TGI (M14 melanoma) was 3220 nM and the GI50 (UACC-62 melanoma) was 1670 nM. It also gave a TGI (UACC-62 melanoma) of 3070 nM, a GI50 (SR leukemia) of 261 nM and a TGI (SR leukemia) of 834 nM. It also gave a GI50 (NCI-H460 lung) of 1390 nM, a TGI (NCI-H460 lung) of 3020 nM and a GI50 (KM12 colon) of 1050 nM. The TGI (KM12 colon) was 2280 nM, the GI50 (NCI/ADR-RES ovarian) was 2190 nM and the TGI (NCI/ADR-RES ovarian) was 5040 nM. For the same compound, the GI50 (A498 renal) was 1890 nM, the TGI (A498 renal) was 3300 nM and the GI50 (OVCAR-8 ovarian) was 1510 nM. The TGI (OVCAR-8 ovarian) was 3080 nM, the GI50 (K-562 leukemia) was 2300 nM and the TGI (K-562 leukemia) was over 100000 nM. For the same compound, the GI50 (SF-268 CNS) was 1670 nM, the TGI (SF-268 CNS) was 3250 nM and the GI50 (OVCAR-5 ovarian) was 1710 nM. It also gave a TGI (OVCAR-5 ovarian) of 3120 nM, a GI50 (NCI-H226 lung) of 2010 nM and a TGI (NCI-H226 lung) of 4620 nM. It also gave a GI50 (SK-MEL-28 melanoma) of 1700 nM and a TGI (SK-MEL-28 melanoma) of 3090 nM.
